From PubChem BioAssay AID2305 (GlaxoSmithKline (GSK), 2010)

Tested on: P. falciparum 3D7 growth, pLDH absorbance
Assay: P. falciparum 3D7 growth inhibition, dose response, strain 3D7 (AID 2305)

Row | Structure (SMILES) | IC50 [nM]
1 | Cc1cc(-c2nc3ccc(CN4CCN(C)CC4)cc3[nH]2)nn1Cc1cc(Cl)ccc1OCc1ccccc1 | 1120
2 | Cc1cc(NCc2ccccc2)nc(NCc2ccccc2)n1 | 970
3 | COc1ccc2nccc([C@@H](O)CN3CCC(NCc4cc5cccc6c5n(c4=O)CCC6)CC3)c2c1 | 860
4 | CO/C(=C\C=C\c1cc2cc(Cl)c(Cl)cc2[nH]1)C(=O)NCCCN1CCN(c2ccc(OC)cc2)CC1 | 700
5 | CN1CCN(CCCN(Cc2cccc(-c3ccc(CNCc4ccc5c(c4)OCO5)cc3)c2)C(=O)Nc2ccccc2)CC1 | 680
6 | c1ccc(CN2CCC(NCc3ccccc3-c3ccc(CNCc4ccc5c(c4)OCO5)cc3)CC2)cc1 | 330
7 | CC[C@H]1CN2CC[C@H]1C[C@H]2[C@H](O)c1cc(-c2cccc(F)c2)nc2ccc(OC)cc12 | 60
8 | Cc1cccc2[nH]c(-c3ccc(-c4cccc(NC(=O)Nc5ccc(F)c(F)c5F)c4)cc3)nc12 | 340
9 | O=C(c1ccc([N+](=O)[O-])o1)N1CCC(Cc2ccc(C(F)(F)F)cc2)CC1 | 170
10 | CN(C)C(=O)C(CC(=O)NCc1ccccc1Cl)N(C)C (stereo not given) (tested in a mixture with another compound) | 900
11 | COc1ccc(Nc2nccc(NCC(O)c3cccc(C(F)(F)F)c3)n2)cc1 (stereo not given) | 890
12 | CS(=O)(=O)c1ccc(CNCc2cccc(-c3ccc(-c4nc5ccc(C(F)(F)F)cc5[nH]4)cc3)c2)cc1 | 510
13 | COc1cc(C(=O)Nc2ccc(-c3nc4ccccc4[nH]3)cc2)cc(OC)c1OC | 980
14 | COc1ccc(OC)c(C(O)CNC(C)C)c1 (stereo not given) | 60
15 | CC1(C)N=C(N)NC(Nc2ccc(Cl)cc2)=N1 | 340
16 | COc1ccc(-c2ccc(CNCc3ccsc3)cc2)cc1S(=O)(=O)NCCN1CCCC1 | 790
17 | NC(=O)c1cnc2cc(-c3ccncc3)cc(Nc3ccc(NC(=O)C4CCCCC4)cc3)c2c1 | 230
18 | COc1ccc2c(NN=Cc3ccccc3Cl)ccnc2c1 | 620
19 | FC(F)(F)c1ccc(CNCC2CCN(Cc3ccc4c(c3)OCO4)CC2)cc1 | 1360
20 | Cc1ccc(S(=O)(=O)c2nc(S(=O)(=O)c3ccccc3)sc2NCC2CCCO2)cc1 (stereo not given) | 1020

Row | Structure (SMILES) | IC50 [nM]
21 | CC(C)C[C@H](NC(=O)c1cc2ccccc2s1)C(=O)N[C@H]1CCN(Cc2ccc(OC[C@@H]3CCCN3C)c(Cl)c2)C1 | 850
22 | COc1ccc(C2(CNCC(O)c3cccc([N+](=O)[O-])c3)CCCCC2)cc1OC (stereo not given) | 960
23 | NC(=O)c1cccc(C(=O)Nc2cccc(-c3cccc(-c4nc5ccc(C(F)(F)F)cc5[nH]4)c3)c2)c1 | 130
24 | COc1ccccc1Cc1c(C)nc2nc(N)nc(N)c2c1C | 570
25 | COc1ccc2nc3cc(Cl)ccc3c(NCCCCN)c2c1 | 730
26 | COc1ccccc1CNC(=O)c1nn(-c2ccc(Cl)cc2)c(=O)c2ccccc12 | 290
27 | Oc1ccc(CN2CC[C@@H](N3CCN(CCc4ccccc4)CC3)[C@H](O)C2)cc1Cl | 870
28 | NCC1CCCN1Cc1ccc(-c2cccc(-c3nc4ccc(F)cc4[nH]3)c2)cc1 (stereo not given) | 750
29 | O=C(C=NO)Nc1ccccc1[N+](=O)[O-] | 790
30 | CC(C)(C)c1ccc(Cc2cccc3nc(N)nc(N)c23)cc1 | 830
31 | Cc1ccccc1C1CCN(C2CCC(NC(=O)/C=C/c3ccc(Cl)cc3)CC2)CC1 (stereo not given) | 800
32 | c1ccc2cc3c(Nc4ccc(N5CCCCC5)cc4)ccnc3cc2c1 | 740
33 | CCCN1CCN(CCCNC(=O)c2cc3c(Cl)nc4ccc(C)cc4c3s2)CC1 | 800
34 | CCN(CC)S(=O)(=O)c1ccc(C(C)NC(=O)c2ccccc2COc2ccccc2)cc1 (stereo not given) | 330
35 | CCCOc1ccccc1C(=O)Nc1nonc1-c1ccc(OCC)c(OCC)c1 | 710
36 | O=C(Cn1c(CCc2cccc(F)c2F)cc(=O)c2cccnc21)N(CCCn1ccnc1)Cc1ccc(-c2ccc(C(F)(F)F)cc2)cc1 | 800
37 | CCC(C)CN1C(=O)C(c2ccccc2)(c2ccccc2)N=C1N (stereo not given) | 710
38 | CN(C)CCCNc1ncnc2c1[nH]c1ccc(Br)cc12 | 320
39 | Cc1cc(N2CCCC2)nc(Nc2ccc(NC(=O)Nc3ccccc3)cc2)n1 | 160
40 | FC(F)(F)c1cccc(Nc2nc3nonc3nc2NC2C3CC4CC(C3)CC2C4)c1 (stereo not given) | 660
